“And” between values parts separate entries of the source, which are not always exact repeats. Equal entries are not always repeated.
Columns and labels:
OATP1B1 [1] = biological target: T1, OATP1B1 (Homo sapiens, UniProt Q9Y6L6); experiment: Screening for inhibition of OATP1B1-mediated estradiol-17β-glucuronide uptake; details: for Classification as OATP1B1 inhibitor (more than 50% inhibition of E17βG uptake): 20 μM test compound; for inhibition at 5 min, 100 µM: 100 μM test compound (data not shown)
T1 sequence (Q9Y6L6 1-691): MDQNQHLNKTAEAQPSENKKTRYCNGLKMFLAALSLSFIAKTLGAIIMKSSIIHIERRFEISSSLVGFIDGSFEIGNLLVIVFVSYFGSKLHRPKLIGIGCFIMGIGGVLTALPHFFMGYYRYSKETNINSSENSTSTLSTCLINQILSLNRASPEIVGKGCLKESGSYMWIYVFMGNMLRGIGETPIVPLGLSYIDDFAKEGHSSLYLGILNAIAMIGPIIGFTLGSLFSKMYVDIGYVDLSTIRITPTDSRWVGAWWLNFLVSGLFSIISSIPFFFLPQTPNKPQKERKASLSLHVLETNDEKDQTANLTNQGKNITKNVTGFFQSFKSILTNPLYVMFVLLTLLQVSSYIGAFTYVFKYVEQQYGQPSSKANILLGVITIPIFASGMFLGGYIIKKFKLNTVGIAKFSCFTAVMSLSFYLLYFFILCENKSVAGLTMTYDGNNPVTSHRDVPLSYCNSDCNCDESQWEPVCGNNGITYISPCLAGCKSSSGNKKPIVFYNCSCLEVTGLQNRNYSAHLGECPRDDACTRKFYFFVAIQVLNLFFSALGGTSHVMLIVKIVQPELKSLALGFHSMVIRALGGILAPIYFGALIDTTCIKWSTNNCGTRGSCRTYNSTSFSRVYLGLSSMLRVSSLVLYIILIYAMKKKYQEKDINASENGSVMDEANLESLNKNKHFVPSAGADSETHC

[2] = cited from earlier work; for Fa, fraction of the inhibitor dose absorbed (maximum oral bioavailability): ref [23]–[25]
OATP1B1 [3] = biological target: T1, OATP1B1; experiment: Concentration-dependent inhibition of OATP1B1-mediated atorvastatin uptake; type: cell-based
OATP1B1 [4] = biological target: T1, OATP1B1; experiment: Calculation of R-values
[5] = human, pH 7.4, Inhibition of E17βG uptake

CCC[C@@]1(CCc2ccccc2)CC(O)=C([C@H](CC)c2cccc(NS(=O)(=O)c3ccc(C(F)(F)F)cn3)c2)C(=O)O1 [Tipranavir]
Classification as OATP1B1 inhibitor (more than 50% inhibition of E17βG uptake) (OATP1B1 [1]): inhibitors

COc1ccc2c(c1)c(CC(=O)O)c(C)n2C(=O)c1ccc(Cl)cc1 [Indomethacin]
Classification as OATP1B1 inhibitor (more than 50% inhibition of E17βG uptake) (OATP1B1 [1]): inhibitors

CC[C@]1(O)C[C@@H]2CN(CCc3c([nH]c4ccccc34)[C@@](C(=O)OC)(c3cc4c(cc3OC)N(C)[C@H]3[C@@](O)(C(=O)OC)[C@H](OC(C)=O)[C@]5(CC)C=CCN6CC[C@]43[C@@H]65)C2)C1 [Vinblastine]
Classification as OATP1B1 inhibitor (more than 50% inhibition of E17βG uptake) (OATP1B1 [1]): inhibitors

CC1(C)S[C@@H]2[C@H](NC(=O)Cc3ccccc3)C(=O)N2[C@H]1C(=O)O [Penicillin G]
inhibition at 5 min, 100 µM (OATP1B1 [1]; [5]): 32%

COC(=O)[C@H]1[C@H]2C[C@@H]3c4[nH]c5cc(OC)ccc5c4CCN3C[C@H]2C[C@@H](OC(=O)c2cc(OC)c(OC)c(OC)c2)[C@@H]1OC [Reserpine]
Classification as OATP1B1 inhibitor (more than 50% inhibition of E17βG uptake) (OATP1B1 [1]): inhibitors

CC/C(=C(/CC)c1ccc(O)cc1)c1ccc(O)cc1 [Diethylstilbestrol]
Classification as OATP1B1 inhibitor (more than 50% inhibition of E17βG uptake) (OATP1B1 [1]): inhibitors

N[C@@H](Cc1cc(I)c(Oc2cc(I)c(O)c(I)c2)c(I)c1)C(=O)O [Levothyroxin]
Classification as OATP1B1 inhibitor (more than 50% inhibition of E17βG uptake) (OATP1B1 [1]): not identified as inhibitors
inhibition at 5 min, 75 µM (OATP1B1 [1]; human, pH 7.4, Inhibition of E17βG uptake, 75 μM test compound (data not shown)): > 50%
inhibition at 5 min, 100 µM (OATP1B1 [1]; [5]): > 50%

C[C@H](CCC(=O)NCCS(=O)(=O)O)[C@H]1CC[C@H]2[C@@H]3[C@H](O)C[C@@H]4C[C@H](O)CC[C@]4(C)[C@H]3CC[C@]12C [Taurochenodeoxycholate]
Classification as OATP1B1 inhibitor (more than 50% inhibition of E17βG uptake) (OATP1B1 [1]): inhibitors

C[C@@H]1[C@H](O)[C@@H](C)/C=C/C=C/CC/C=C/C=C/C=C/C=C/C(O[C@H]2O[C@H](C)[C@@H](O)[C@H](N)[C@@H]2O)CC2O[C@](O)(CC(O)C(O)CCC(O)CC(O)CC(O)CC(=O)O[C@H]1C)CC(O)C2C(=O)O (some centres unmarked) [Nystatin]
Classification as OATP1B1 inhibitor (more than 50% inhibition of E17βG uptake) (OATP1B1 [1]): inhibitors

CC(=O)Oc1ccc2c(c1)Oc1cc(OC(C)=O)ccc1C21OC(=O)c2cc(C(=O)O)ccc21 [5-CFDA]
Classification as OATP1B1 inhibitor (more than 50% inhibition of E17βG uptake) (OATP1B1 [1]): inhibitors

CC(C)OC(=O)C(C)(C)Oc1ccc(C(=O)c2ccc(Cl)cc2)cc1 [Fenofibrate]
Fa, fraction of the inhibitor dose absorbed (maximum oral bioavailability) [2]: 0.81
Inhibition of atorvastatin uptake (in words) (OATP1B1 [3]; investigated concentration interval 0.1–100 μM, 1 μM atorvastatin): did not inhibit atorvastatin uptake

C[C@H](CCC(=O)NCC(=O)O)[C@H]1CC[C@H]2[C@@H]3[C@H](O)C[C@@H]4C[C@H](O)CC[C@]4(C)[C@H]3CC[C@]12C [Glycochenodeoxycholate]
Classification as OATP1B1 inhibitor (more than 50% inhibition of E17βG uptake) (OATP1B1 [1]): inhibitors

CC(C)CN(C[C@@H](O)[C@H](Cc1ccccc1)NC(=O)O[C@H]1CCOC1)S(=O)(=O)c1ccc(N)cc1 [Amprenavir]
Imax, maximum systemic plasma concentration of the inhibitor ([2]; amprenavir recalculated from fosamprenavir data, ref [23]–[28]): 11.2 µM
Fa, fraction of the inhibitor dose absorbed (maximum oral bioavailability) [2]: 0.9
R-value B (OATP1B1 [4]; Eq. 2 (IC50), ka = 0.03, Fa = 1, International Transporter Consortium method): 1.21
R-value D (OATP1B1 [4]; Eq. 2 (IC50), ka = 0.1, Fa = 1): 1.54
R-value C (OATP1B1 [4]; Eq. 2 (IC50), ka = 0.1, Fa published value (lopinavir Fa = 1)): 1.49
R-value F (OATP1B1 [4]; Eq. 3 (Ki), ka = 0.03, Fa = 1): 1.37
R-value E (OATP1B1 [4]; Eq. 3 (Ki), ka = 0.03, Fa published value (lopinavir Fa = 1)): 1.34
R-value H (OATP1B1 [4]; Eq. 3 (Ki), ka = 0.1, Fa = 1, Hirano et al. method): 1.95
R-value G (OATP1B1 [4]; Eq. 3 (Ki), ka = 0.1, Fa published value (lopinavir Fa = 1)): 1.87
Range of the eight R-values A–H (OATP1B1 [4]; all eight calculation variants): 1.19–1.95 and < 2
Average (mean) R-value (OATP1B1 [4]; mean of the eight R-values A–H): 1.49
Ki (OATP1B1 [3]): 9.52 µM

CN(CCOc1ccc(CC2SC(=O)NC2=O)cc1)c1ccccn1 (centres unmarked) [Rosiglitazone]
Classification as OATP1B1 inhibitor (more than 50% inhibition of E17βG uptake) (OATP1B1 [1]): classified as OATP1B1 inhibitors

O=C(O)c1cc(/N=N/c2ccc(S(=O)(=O)Nc3ccccn3)cc2)ccc1O [Sulfasalazine]
Classification as OATP1B1 inhibitor (more than 50% inhibition of E17βG uptake) (OATP1B1 [1]): inhibitors

Reference: article PMC3264873 (Pharmaceutical Research, 2011)
